From US20260042753A1 (Merck Patent GmbH, priority 2019, published 2026)
Where two headings read alike, the source gives them in different places.

Tests used:
[1] = molecular target: mutant cKIT (560-576 and V654A) in GIST430/654 cell line (Homo sapiens (Human), UniProt P10721, DEL560-576/V654A); assay: Cellular testing of cKIT mutant inhibitors: phospho-Y307-cKIT Luminex assay in GIST430/654 cells; assay type: cell-based; settings: read-out: GIST 430/654 IC50
Procedure: Assay Principle for Cellular Testing of cKIT Mutant Inhibitors
The GIST430/654 cell line expressing mutated constitutively active cKIT receptor tyrosine kinase ([…]560-576 and V654A) was employed for assessing cellular potency of compounds. Cellular activity of mutant cKIT was determined by the degree of cKIT autophosphorylation at tyrosine 307 using a Luminex-based bead assay. GIST430/654 cells were plated with 25,000 cells per well of a 96-well plate in 100 μl medium (85% IMDM/15% FCS supplemented with 100 nM Imatinib). At the following day compounds were added in a serial dilution for 45 min. Then, cells were lysed with 90 μl lysis buffer (20 mM Hepes pH 7.5, 200 mM NaCl, 1.5 mM MgCl2×6H2O, 0.4 mM EDTA, 1% Triton-X-100, 1% Phosphatase-Inhibitor II, 20 mM D-Glycerolphosphat, 0.1% Protease-Inhibitor Cocktail III, 0.01% Benzonase) und lysates were cleared by centrifugation through a 96-well filter plate (0.65 μm). Samples were incubated with Luminex-beads which were coupled with an anti-total cKIT antibody overnight at 4° C. under gentle agitation. For detection of phospho-Y307-cKIT a phosphospecific antibody and a species-specific PE-labelled secondary antibody were added. The amount of phospho-Y307-cKIT was determined in a Luminex 200 instrument measuring 100 events per well within 60 seconds.
Counts from samples treated with compounds were calculated as percent of control from solvent treated (0.3% DMSO) samples. Dose-response curves were fitted and IC50 values were determined using Genedata Screener software.

[2] = molecular target: c-Kit(V654A) (Homo sapiens, UniProt P10721, V654A); assay: c-Kit(V654A) assay; assay type: biochemical
Procedure: c-Kit(V654A) (N-terminal GST-tagged, recombinant human c-Kit, amino acids 544-end containing the V654A mutation) is incubated with 8 mM MOPS pH 7.0, 0.2 mM EDTA, 250 μM GGMEDIYEFMGGKKK, 10 mM MgAcetate and [gamma-33P-ATP](specific activity approx. 500 cpm/pmol, concentration 200 μM). The reaction is initiated by the addition of the MgATP mix. After incubation for 40 minutes at room temperature, the reaction is stopped by the addition of 3% phosphoric acid solution. 10 μL of the reaction is then spotted onto a P30 filtermat and washed three times for 5 minutes in 75 mM phosphoric acid and once in methanol prior to drying and scintillation counting.

[3] = Table 1, cKIT autophosphorylation, compounds 45 min
[4] = Table 2, corresponding triazole derivatives
[5] = Table 2, isoxazole derivatives presently described

Sequence of mutant cKIT (560-576 and V654A) in GIST430/654 cell line (P10721 other isoform, or with tags, fused parts or gaps V654A/del 1-25/del 560-576 limits assumed): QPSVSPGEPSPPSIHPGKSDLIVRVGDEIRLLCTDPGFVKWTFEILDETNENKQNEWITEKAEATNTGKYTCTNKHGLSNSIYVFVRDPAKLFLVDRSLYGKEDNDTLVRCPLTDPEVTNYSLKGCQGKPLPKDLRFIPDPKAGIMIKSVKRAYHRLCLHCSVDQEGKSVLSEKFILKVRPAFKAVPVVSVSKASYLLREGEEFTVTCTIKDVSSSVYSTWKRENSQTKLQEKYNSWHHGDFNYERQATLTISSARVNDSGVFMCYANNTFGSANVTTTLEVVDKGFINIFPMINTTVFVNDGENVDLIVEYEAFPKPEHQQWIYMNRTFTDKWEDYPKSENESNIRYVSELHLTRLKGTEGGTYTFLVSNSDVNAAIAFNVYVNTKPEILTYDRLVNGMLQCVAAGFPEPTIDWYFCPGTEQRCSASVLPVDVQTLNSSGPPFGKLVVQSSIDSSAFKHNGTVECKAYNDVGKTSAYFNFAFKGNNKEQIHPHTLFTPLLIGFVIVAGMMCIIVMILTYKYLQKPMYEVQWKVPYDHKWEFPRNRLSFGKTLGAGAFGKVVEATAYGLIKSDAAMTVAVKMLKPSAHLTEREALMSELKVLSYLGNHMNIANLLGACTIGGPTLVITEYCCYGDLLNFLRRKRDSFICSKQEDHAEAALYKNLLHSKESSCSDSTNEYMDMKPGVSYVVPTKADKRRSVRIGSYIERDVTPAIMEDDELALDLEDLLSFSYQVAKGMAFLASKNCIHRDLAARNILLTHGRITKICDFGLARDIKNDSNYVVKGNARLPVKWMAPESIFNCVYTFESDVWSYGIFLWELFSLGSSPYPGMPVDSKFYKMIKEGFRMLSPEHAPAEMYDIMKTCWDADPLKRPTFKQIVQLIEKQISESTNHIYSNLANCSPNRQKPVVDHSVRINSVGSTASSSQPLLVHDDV

Structure (SMILES)	IC50 [1, 3]	IC50 ([2]; Table 1, 200 μM ATP)	other results
COCCOc1cc2[nH]nc(-c3cc(-c4ccc(S(=O)(=O)N(C)C)cc4)no3)c2cc1F [A144, 4-{5-[5-fluoro-6-(2-methoxyethoxy)-1H-indazol-3-yl]-1,2-oxazol-3-yl}-N,N-dimethylbenzene-1-sulfonamide]	1900 nM	3.2 nM	
COCCOc1cc2[nH]nc(-c3cc(-c4ccc(C(=O)N5Cc6cncnc6C5)cc4)no3)c2cc1F [A207, 5-fluoro-6-(2-methoxyethoxy)-3-[3-(4-{5H,6H,7H-pyrrolo[3,4-d]pyrimidine-6-carbonyl}phenyl)-1,2-oxazol-5-yl]-1H-indazole]	73 nM	1 nM	
COCCOc1cc2[nH]nc(-c3cc(-c4ccc(C(=O)N5C[C@@H]6CS(=O)(=O)C[C@@H]6C5)cc4)no3)c2cc1F [A217, (cis)-5-(4-{5-[5-fluoro-6-(2-methoxyethoxy)-1H-indazol-3-yl]-1,2-oxazol-3-yl}benzoyl)-hexahydro-1H-2lambda6-thieno[3,4-c]pyrrole-2,2-dione]	43 nM	0.32 nM	
COCCOc1cc2[nH]nc(-c3cc(-c4ccc(C(=O)N5CC(N6CCN(C)CC6)C5)cc4)no3)c2cc1F [A102, 5-fluoro-6-(2-methoxyethoxy)-3-(3-{4-[3-(4-methylpiperazin-1-yl)azetidine-1-carbonyl]phenyl}-1,2-oxazol-5-yl)-1H-indazole]	160 nM	1.3 nM	
COCCOc1cc2[nH]nc(-c3cn(-c4ccc(C(=O)N5Cc6ccncc6C5)cc4)nn3)c2cc1F [reference compound]			IC50 [1, 4]: 140 nM; IC50 [2, 4]: 2.3 nM
Cn1cc(-c2ccc3c(-c4cc(-c5ccc(C(=O)N6CCC[C@@H]6C(C)(C)O)cc5)no4)n[nH]c3c2)cn1 [A8, 2-[(2R)-1-(4-{5-[6-(1-methyl-1H-pyrazol-4-yl)-1H-indazol-3-yl]-1,2-oxazol-3-yl}benzoyl)pyrrolidin-2-yl]propan-2-ol]	280 nM	20 nM	
COCCOc1cc2[nH]nc(-c3cc(-c4ccc(C(=O)N5CC(O)(c6cccnc6)C5)cc4)no3)c2cc1F [A221, 1-(4-{5-[5-fluoro-6-(2-methoxyethoxy)-1H-indazol-3-yl]-1,2-oxazol-3-yl}benzoyl)-3-(pyridin-3-yl)azetidin-3-ol]	120 nM	0.54 nM	
COCCOc1cc2[nH]nc(-c3cc(-c4ccc(C(=O)N5CC(n6cccn6)C5)cc4)no3)c2cc1F [A75, 5-fluoro-6-(2-methoxyethoxy)-3-(3-{4-[3-(1H-pyrazol-1-yl)azetidine-1-carbonyl]phenyl}-1,2-oxazol-5-yl)-1H-indazole]	59 nM	1.4 nM	
COCCOc1cc2[nH]nc(-c3cc(-c4ccc(-n5cncn5)cc4)no3)c2cc1F [A21, 5-fluoro-6-(2-methoxyethoxy)-3-{3-[4-(1H-1,2,4-triazol-1-yl)phenyl]-1,2-oxazol-5-yl}-1H-indazole]	570 nM	12 nM	
COCCOc1cc2[nH]nc(-c3cc(-c4ccc(C(=O)N5CC(N6CCOCC6)C5)c(F)c4)no3)c2cc1F [A168, (2-fluoro-4-{5-[5-fluoro-6-(2-methoxy-ethoxy)-1H-indazol-3-yl]-isoxazol-3-yl}-phenyl)-(3-morpholin-4-yl-azetidin-1-yl)-methanone]	49 nM	3.3 nM	
COCCOc1cc2[nH]nc(-c3cc(-c4ccc(C(=O)NCC(C)(C)N5CCOCC5)cc4)no3)c2cc1F [A164, 4-{5-[5-fluoro-6-(2-methoxyethoxy)-1H-indazol-3-yl]-1,2-oxazol-3-yl}-N-[2-methyl-2-(morpholin-4-yl)propyl]benzamide]	130 nM	1.5 nM	
COCCOc1cc2[nH]nc(-c3cc(-c4ccc(C(=O)N5CCOC[C@H]5C)cc4)no3)c2cc1F [compound 114]			IC50 [1, 5]: 56 nM; IC50 [2, 5]: 0.91 nM
COCCOc1cc2[nH]nc(-c3cn(-c4ccc(C(=O)N5CC(C#N)C5)cc4)nn3)c2cc1F [reference compound]			IC50 [1, 4]: 2200 nM; IC50 [2, 4]: 13 nM
COCCOc1cc2[nH]nc(-c3cc(-c4ccc(C(=O)N5CC[C@H](F)C5)cc4)no3)c2cc1F [A32, 5-fluoro-3-(3-{4-[(3S)-3-fluoropyrrolidine-1-carbonyl]phenyl}-1,2-oxazol-5-yl)-6-(2-methoxyethoxy)-1H-indazole]	39 nM	0.91 nM	
COCCOc1cc2[nH]nc(-c3cc(-c4ccc(N5CC(N6CCOCC6)C5)nc4)no3)c2cc1F [A145, 5-fluoro-6-(2-methoxyethoxy)-3-(3-{6-[3-(morpholin-4-yl)azetidin-1-yl]pyridin-3-yl}-1,2-oxazol-5-yl)-1H-indazole]	1100 nM	4.8 nM	
COCCOc1cc2[nH]nc(-c3cc(-c4ccc(C(=O)N5CCN(C6COC6)C[C@@H]5C)cc4)no3)c2cc1F [A191, 5-fluoro-6-(2-methoxyethoxy)-3-(3-{4-[(2S)-2-methyl-4-(oxetan-3-yl)piperazine-1-carbonyl]phenyl}-1,2-oxazol-5-yl)-1H-indazole]	58 nM	1.8 nM	
COCCOc1cc2[nH]nc(-c3cc(-c4ccc(C(=O)N5CC6(CCO6)C5)cc4)no3)c2cc1F [A79, 5-fluoro-6-(2-methoxyethoxy)-3-[3-(4-{1-oxa-6-azaspiro[3.3]heptane-6-carbonyl}phenyl)-1,2-oxazol-5-yl]-1H-indazole]	170 nM	1.1 nM	
COCCOc1cc2[nH]nc(-c3cc(-c4cccc(C(=O)N(C)C)c4)no3)c2cc1F [A135, 3-{5-[5-fluoro-6-(2-methoxy-ethoxy)-1H-indazol-3-yl]-isoxazol-3-yl}-N,N-dimethyl-benzamide]	340 nM	4.9 nM	
COCCOc1cc2[nH]nc(-c3cn(-c4ccc(C5CCNCC5(C)C)cc4)nn3)c2cc1F (stereo not shown) [reference compound]			IC50 [1, 4]: 120 nM; IC50 [2, 4]: 21 nM
COCCOc1cc2[nH]nc(-c3cc(-c4ccc(C(=O)N5C6COCC5C6)cc4)no3)c2cc1F [A182, 5-fluoro-6-(2-methoxyethoxy)-3-[3-(4-{3-oxa-6-azabicyclo[3.1.1]heptane-6-carbonyl}phenyl)-1,2-oxazol-5-yl]-1H-indazole]	38 nM	0.94 nM	
CNC(=O)c1ccc2c(-c3cc(-c4ccc(C(=O)N(C)C)cc4)no3)n[nH]c2c1 [A24, 3-[3-(4-dimethylcarbamoyl-phenyl)-isoxazol-5-yl]-1H-indazole-6-carboxylic acid methylamide]		88 nM	
COCCOc1cc2[nH]nc(-c3cc(-c4ccc(OC)nc4)no3)c2cc1F [A130, 5-fluoro-6-(2-methoxy-ethoxy)-3-[3-(6-methoxy-pyridin-3-yl)-isoxazol-5-yl]-1H-indazole]		27 nM	
COCCOc1cc2[nH]nc(-c3cc(-c4ccc(N5CCS(=O)(=O)CC5)cc4)no3)c2cc1F [A122, 4-(4-{5-[5-fluoro-6-(2-methoxyethoxy)-1H-indazol-3-yl]-1,2-oxazol-3-yl}phenyl)-1lambda6-thiomorpholine-1,1-dione]		54 nM	
COCCOc1cc2[nH]nc(-c3cc(-c4ncc(C(=O)N5CC(N6CCOCC6)C5)s4)no3)c2cc1F [A83, 5-fluoro-6-(2-methoxyethoxy)-3-(3-{5-[3-(morpholin-4-yl)azetidine-1-carbonyl]-1,3-thiazol-2-yl}-1,2-oxazol-5-yl)-1H-indazole]		76 nM	
COCCOc1cc2[nH]nc(-c3cn(-c4ccc(C(=O)N5CCOCC5)cc4)nn3)c2cc1F [reference compound]			IC50 [1, 4]: 490 nM
COC(=O)c1ccc2c(-c3cc(-c4ccc(C(=O)N(C)C)cc4)no3)n[nH]c2c1 [A19, methyl 3-{3-[4-(dimethylcarbamoyl)phenyl]-1,2-oxazol-5-yl}-1H-indazole-6-carboxylate]		8.2 nM	
COCCOc1cc2[nH]nc(-c3cc(-c4cncs4)no3)c2cc1F [A48, 5-fluoro-6-(2-methoxyethoxy)-3-[3-(1,3-thiazol-5-yl)-1,2-oxazol-5-yl]-1H-indazole]		13 nM	
COCCOc1cc2[nH]nc(-c3cc(-c4ncc(C(=O)N5CC(F)C5)s4)no3)c2cc1F [A86, 5-fluoro-3-{3-[5-(3-fluoroazetidine-1-carbonyl)-1,3-thiazol-2-yl]-1,2-oxazol-5-yl}-6-(2-methoxyethoxy)-1H-indazole]		69 nM	
COCCOc1cc2[nH]nc(-c3cn(-c4ccc(C(=O)N(C)C)cc4)nn3)c2cc1F [reference compound]			IC50 [2, 4]: 11 nM
